Read-outs that look alike come from different tables or passages of the source. Marks after values point to notes of the source that are not given here.
Legend:
[1] = Example 1: ambulatory blood pressure monitoring; format: in vivo, human; conditions: for HR-BP Product: treatment group difference (from placebo) in mean change from single-blind placebo: in mmHg·bpm (unit assumed); for Pulse: treatment group difference (from placebo) in mean change from single-blind placebo: in bpm (unit assumed); for DBP: treatment group difference (from placebo) in mean change from single-blind placebo / SBP: treatment group difference (from placebo) in mean change from single-blind placebo: in mmHg (unit assumed)
Experimental: Ambulatory blood pressure monitoring was conducted following both placebo and randomized treatment group in-clinic administrations. Three periods of ambulatory blood pressure monitoring were included, the first period was from before to 24 hours after a single, in-clinic dose of placebo (to establish a baseline); the second and third periods occurred from before to 24 hours after each of 2 single, in-clinic doses of double-blind treatment, administered within 14 days of each other. Blood samples for pharmacokinetic analysis were collected before and at 0.5, 1.0, and 2.0 hours after each in-clinic bremelanotide single-dose treatment (double-blind only), to permit analysis of concentration-response relationships.
Mean changes in blood pressure were characterized in all subjects based on sequential supervised dosing of single-blind subcutaneous placebo and two doses of randomized study drug. The primary analysis for mean changes was the difference between treatment groups in the change from single-blind placebo to randomized drug (Visit 2 vs. Visits 5/7). There were between 86 to 100 subjects in each dose group.
Although there were an increased number of outliers for maximal changes from baseline in systolic blood pressure in drug-treated patients, the duration of these events was quite limited. The interrogation interval during ambulatory blood pressure monitoring assessments of 15 minutes allowed definition of the maximal duration of such excursions. […] The clinical significance of such changes, if any, is small.

[2] = Phase 2 intranasal trials: plasma concentration after 10 mg intranasal dose; format: in vivo; conditions: female, human, inhaled or intranasal, premenopausal, 30 minutes post dosing
Experimental: In the bremelanotide premenopausal arm, 42.5% of the subjects were discontinued due to hypertension, nausea, vomiting or myalgia. Subjects received a 10 mg intranasal dose of bremelanotide, with premenopausal subjects determined to have a mean plasma concentration of 88.5±51.9 ng/mL and a % CV of 58.6, and postmenopausal subjects determined to have a mean plasma concentration of 93.2±68.5 ng/mL and a % CV of 73.5. The minimum and maximum plasma concentration levels for all women at thirty minutes post dose range from 0.0 ng/mL to 207.0 ng/mL.
In the intranasal study, premenopausal women self-administered a 10 mg intranasal dose.

[3] = Pharmacokinetics of subcutaneous administration in healthy adult males; format: in vivo; conditions: male, human, plasma, sc, read-out: Median Tmax
From the text: Results of Tmax values were compared between subcutaneous administration (SC) and intranasal (IN) administration of various doses of bremelanotide, as shown in FIG. 1.

[4] = Subcutaneous trial in males: vomiting; format: in vivo, human; conditions: males
Experimental: In a trial in males, 1 of 6 subjects at the 5-mg dose level, 1 of 6 subjects at the 7.5 mg dose level, and 3 of 6 subjects at the 10-mg dose level experienced vomiting that was mild or moderate in intensity and delayed 6 to 15 hours.

[5] = system: men diagnosed with erectile dysfunction; conditions: subcutaneous injection of either a 4 or 6 mg dose; cited from earlier work
[6] = 1.25 mg SC, interval 8-24 h, V5
[7] = 1.25 mg SC, interval 8-24 h, V7
[8] = 1.75 mg SC, interval 0-24 h, V5
[9] = 1.75 mg SC, interval 0-24 h, V7
[10] = 1.75 mg SC, interval 8-24 h, V5
[11] = 1.75 mg SC, interval 8-24 h, V7

## CCCC[C@H](NC(C)=O)C(=O)N[C@H]1CC(=O)NCCCC[C@@H](C(=O)O)NC(=O)[C@H](Cc2c[nH]c3ccccc23)NC(=O)[C@H](CCCNC(=N)N)NC(=O)[C@@H](Cc2ccccc2)NC(=O)[C@H](Cc2c[nH]cn2)NC1=O [bremelanotide, Ac-Nle-cyclo(-Asp-His-D-Phe-Arg-Trp-Lys)-OH]
[1]; 1.25 mg SC, interval 4-8 h, V5
  HR-BP Product: treatment group difference (from placebo) in mean change from single-blind placebo: −621.0*
[1]; 1.25 mg SC, interval 4-8 h, V7
  Pulse: treatment group difference (from placebo) in mean change from single-blind placebo: −6.5*
  DBP: treatment group difference (from placebo) in mean change from single-blind placebo: 0.9
  SBP: treatment group difference (from placebo) in mean change from single-blind placebo: 1.3*
  HR-BP Product: treatment group difference (from placebo) in mean change from single-blind placebo: −669.7*
[1]; [6]
  Pulse: treatment group difference (from placebo) in mean change from single-blind placebo: −1.5
  DBP: treatment group difference (from placebo) in mean change from single-blind placebo: 1.4*
  SBP: treatment group difference (from placebo) in mean change from single-blind placebo: 0.7
  HR-BP Product: treatment group difference (from placebo) in mean change from single-blind placebo: −127.4
[1]; [7]
  Pulse: treatment group difference (from placebo) in mean change from single-blind placebo: −0.7
  DBP: treatment group difference (from placebo) in mean change from single-blind placebo: 1.7*
  SBP: treatment group difference (from placebo) in mean change from single-blind placebo: 1.5*
  HR-BP Product: treatment group difference (from placebo) in mean change from single-blind placebo: 4.2
[1]; 1.75 mg SC
  Systolic blood pressure shifts: ΔSBP >10 mmHg, Duration >30 minutes: 0
  Systolic blood pressure shifts: ΔSBP >15 mmHg, Duration >30 minutes: 0
[1]; 1.75 mg SC, interval 0-4 h, V5
  Pulse: treatment group difference (from placebo) in mean change from single-blind placebo: −4.6*
  DBP: treatment group difference (from placebo) in mean change from single-blind placebo: 3.2*
  SBP: treatment group difference (from placebo) in mean change from single-blind placebo: 3.1*
  HR-BP Product: treatment group difference (from placebo) in mean change from single-blind placebo: −305.9
[1]; 1.75 mg SC, interval 0-4 h, V7
  Pulse: treatment group difference (from placebo) in mean change from single-blind placebo: −4.7*
  DBP: treatment group difference (from placebo) in mean change from single-blind placebo: 2.6*
  SBP: treatment group difference (from placebo) in mean change from single-blind placebo: 2.5*
  HR-BP Product: treatment group difference (from placebo) in mean change from single-blind placebo: −375.4*
[1]; [8]
  Pulse: treatment group difference (from placebo) in mean change from single-blind placebo: −2.2*
  DBP: treatment group difference (from placebo) in mean change from single-blind placebo: 1.9*
  SBP: treatment group difference (from placebo) in mean change from single-blind placebo: 1.6
  HR-BP Product: treatment group difference (from placebo) in mean change from single-blind placebo: −139.1
[1]; [9]
  Pulse: treatment group difference (from placebo) in mean change from single-blind placebo: −2.2*
  DBP: treatment group difference (from placebo) in mean change from single-blind placebo: 1.8*
  SBP: treatment group difference (from placebo) in mean change from single-blind placebo: 1.3
  HR-BP Product: treatment group difference (from placebo) in mean change from single-blind placebo: −184.1
[1]; 1.75 mg SC, interval 4-8 h, V5
  Pulse: treatment group difference (from placebo) in mean change from single-blind placebo: −6.6*
  DBP: treatment group difference (from placebo) in mean change from single-blind placebo: 2.3*
  SBP: treatment group difference (from placebo) in mean change from single-blind placebo: 2.1
  HR-BP Product: treatment group difference (from placebo) in mean change from single-blind placebo: −608.1*
[1]; 1.75 mg SC, interval 4-8 h, V7
  Pulse: treatment group difference (from placebo) in mean change from single-blind placebo: −6.6*
  DBP: treatment group difference (from placebo) in mean change from single-blind placebo: 2.2*
  SBP: treatment group difference (from placebo) in mean change from single-blind placebo: 2.2
  HR-BP Product: treatment group difference (from placebo) in mean change from single-blind placebo: −624.5*
[1]; [10]
  Pulse: treatment group difference (from placebo) in mean change from single-blind placebo: −0.8
  DBP: treatment group difference (from placebo) in mean change from single-blind placebo: 1.4*
  SBP: treatment group difference (from placebo) in mean change from single-blind placebo: 0.9
  HR-BP Product: treatment group difference (from placebo) in mean change from single-blind placebo: −23.7
[1]; [11]
  Pulse: treatment group difference (from placebo) in mean change from single-blind placebo: −0.5
  DBP: treatment group difference (from placebo) in mean change from single-blind placebo: 1.4
  SBP: treatment group difference (from placebo) in mean change from single-blind placebo: 0.6
  HR-BP Product: treatment group difference (from placebo) in mean change from single-blind placebo: −31.3
[2]; read-out: Cmax / plasma concentration, mean
  Cmax at 30 min: 88.5 ± 51.9 ng/mL
[2]; read-out: Cmax, maximum
  Cmax at 30 min: 207 ng/mL
[2]; read-out: Cmax, median
  Cmax at 30 min: 81.1 ng/mL
[3]
  Tmax: 30 to 60 min
[4]; 7.5 mg dose level
  Subjects who experienced vomiting: 1 of 6
[4]; 5-mg dose level
  Subjects who experienced vomiting: 1 of 6
[4]; 10-mg dose level
  Subjects who experienced vomiting: 3 of 6
[5]
  Erectile response compared to placebo: statistically significant erectile response

From US9352013B2, “Uses of bremelanotide in therapy for female sexual dysfunction” (Palatin Technologies, Inc., priority 2012, dated 2016)
